Where “and” joins values, the source holds several entries; their conditions need not be identical. Equal values may be shown once. Bounds are passed on as bounds.

This assay has as its target T1, human kinase Mps-1 (Homo sapiens, UniProt P33981).
T1 construct: N-terminally GST-tagged human full length recombinant Mps-1 kinase; GST (N); purchased Invitrogen, Karslruhe, Germany PV4071
T1 sequence (P33981 1-857): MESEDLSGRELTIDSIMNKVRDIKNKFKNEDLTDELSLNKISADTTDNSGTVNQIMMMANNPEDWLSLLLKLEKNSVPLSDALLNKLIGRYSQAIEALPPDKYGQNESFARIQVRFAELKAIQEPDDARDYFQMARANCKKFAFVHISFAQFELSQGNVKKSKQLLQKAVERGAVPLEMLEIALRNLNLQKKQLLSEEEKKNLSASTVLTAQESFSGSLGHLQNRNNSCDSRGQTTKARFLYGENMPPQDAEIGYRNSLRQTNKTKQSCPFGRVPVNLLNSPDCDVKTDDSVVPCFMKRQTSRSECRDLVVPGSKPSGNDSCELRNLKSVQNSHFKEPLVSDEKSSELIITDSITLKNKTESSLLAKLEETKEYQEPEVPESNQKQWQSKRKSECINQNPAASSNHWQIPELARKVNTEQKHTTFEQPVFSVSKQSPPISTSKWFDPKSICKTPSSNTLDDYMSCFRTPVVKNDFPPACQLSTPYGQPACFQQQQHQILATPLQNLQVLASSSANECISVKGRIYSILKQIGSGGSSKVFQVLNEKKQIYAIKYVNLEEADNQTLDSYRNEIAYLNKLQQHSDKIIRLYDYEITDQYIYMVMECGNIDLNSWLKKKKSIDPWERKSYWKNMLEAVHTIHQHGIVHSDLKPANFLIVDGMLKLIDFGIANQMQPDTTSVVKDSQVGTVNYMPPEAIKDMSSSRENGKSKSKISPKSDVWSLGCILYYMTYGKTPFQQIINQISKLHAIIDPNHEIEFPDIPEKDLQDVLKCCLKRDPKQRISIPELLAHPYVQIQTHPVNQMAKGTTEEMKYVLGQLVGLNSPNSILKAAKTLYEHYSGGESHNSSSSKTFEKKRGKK
The assay is described as follows: Mps-1 kinase assay (TR-FRET). The class given is biochemical. As to conditions: Mps-1 TR-FRET kinase assay; avg; read-out: Mps1 avg (IC50 [mol/l]). The gist of the method: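 GST-tagged full-length recombinant human Mps-1 (~0.5 nM) pre-incubated 15 min with compound, then reacted 60 min at 22 °C with 10 μM ATP and 1 μM biotinylated peptide in Hepes pH 7.7 buffer. EDTA-stopped; TR-FRET (Eu anti-phospho-Ser/Thr to SA-XLent) 665/620 nm ratio normalised to no-inhibitor and no-enzyme controls.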
On the technique in general: Time-resolved FRET reads energy transfer from a long-lived donor to a nearby acceptor.
`Cc1nsc(Nc2cnc(C(F)(F)F)cn2)c1C(=O)Nc1ccc(F)c(OCC2CCN(CC(F)F)C2)c1` (stereo not drawn) [Example 316, N-(3-{[1-(2,2-difluoroethyl)pyrrolidin-3-yl]methoxy}-4-fluorophenyl)-3-methyl-5-{[5-(trifluoromethyl)pyrazin-2-yl]amino}-1,2-thiazole-4-carboxamide]: the IC50 is no less than 20 µM.

With `Cc1nsc(Nc2cnc(C(F)(F)F)cn2)c1C(=O)Nc1cccc(NC(=O)OC(C)(C)C)c1` [Example 284, 3-tert-butyl (3-{[(3-methyl-5-{[5-(trifluoromethyl)pyrazin-2-yl]amino}-1,2-thiazol-4-yl)carbonyl]amino}phenyl)carbamate], the IC50 is greater than 20 µM.

For `Cc1nsc(Nc2cnc(C(F)(F)F)cn2)c1C(=O)Nc1ccc(F)c(OCCCNCCC(F)(F)F)c1` [Example 307, N-(4-fluoro-3-{3-[(3,3,3-trifluoropropyl)amino]propoxy}phenyl)-3-methyl-5-{[5-(trifluoromethyl)pyrazin-2-yl]amino}-1,2-thiazole-4-carboxamide], the IC50 is no less than 20 µM.

With `Cc1nsc(Nc2cnc(C(F)(F)F)cn2)c1C(=O)Nc1ccc(OCCCNCC(F)(F)F)nc1` [Example 292, 3-methyl-N-(6-{3-[(2,2,2-trifluoroethyl)amino]propoxy}pyridin-3-yl)-5-{[5-(trifluoromethyl)pyrazin-2-yl]amino}-1,2-thiazole-4-carboxamide], the IC50 was greater than 20 µM.

As for `Cc1nsc(Nc2cncc(C(F)(F)F)n2)c1C(=O)Nc1ccc(C(=O)NC2CN(CC(F)(F)F)C2)cc1` [Example 280, 3-methyl-N-(4-{[1-(2,2,2-trifluoroethyl)azetidin-3-yl]carbamoyl}phenyl)-5-{[6-(trifluoromethyl)pyrazin-2-yl]amino}-1,2-thiazole-4-carboxamide], the IC50 is > 20 µM and 11 µM.

As to `Cc1nsc(Nc2cc(C#N)ccn2)c1C(=O)Nc1cccc(C(=O)NC(C)C)c1` [Example 254, 5-[(4-cyanopyridin-2-yl)amino]-N-[3-(isopropylcarbamoyl)phenyl]-3-methyl-1,2-thiazole-4-carboxamide], the IC50 was greater than 20 µM.
